Results published in PMC9214538, “The M1 muscarinic receptor is present in situ as a ligand-regulated mixture of monomers and oligomeric complexes” (Proceedings of the National Academy of Sciences of the …, 2022).
Where two headings read alike, the source gives them in different places. Numbered stars: 1 amine (or outer) side, 2 acyl side, 3 side chain; on linkers, the order of the positions; unused ones are H or OH. Bridge positions count the residues as written; N and C are the ends. Square brackets hold non-standard residues; d marks the D form. Peptide text beside a SMILES is read from it. * marks the point of attachment. Leu(3R-OH,Nα-propionyl) = CCC(=O)N[C@H](C(=O)*)[C@H](O)C(C)C; X1 = CC(C)[C@@H](O[*:3])[C@H](N[*:1])C(=O)[*:2]; NMeT = CN[C@H](C(=O)O)[C@@H](C)O; dPhLac = O=C(O)[C@H](O)Cc1ccccc1; NMeA = CN[C@@H](C)C(=O)O; NMeDha = C=C(NC)C(=O)O

Legend:
D3 dopamine receptor = tested on: D3 dopamine receptor; parameters: method as in PMID 28522847; conditions: ref [40]; cited from earlier work
chemokine CXCR4 = conditions: ref [10], [41]; cited from earlier work
[1] = tested on: hippocampal and cortical neurons; assay: Ca^2+ imaging (Fura-8 AM) in primary neuronal cultures; format: cell-based, mice; conditions: for elevation of [Ca^2+] / percentage of tested cells that responded to carbachol: 300 μM carbachol
Protocol: Primary neuronal cells were plated onto precoated cover slides at a density of 5 × 10^5 and maintained at 37 °C in a 5% CO2 humidified atmosphere. On DIV7, cells were loaded with the calcium-sensitive dye Fura-8 AM; 3 µM Fura-8 was added to normal growth medium and the cells incubated at 37 °C for 30 min. Cells were then washed and incubated with HBSS with or without 1 µM FR900359 for 30 min. Coverslips were then placed into a microscope chamber containing HBSS and assays were performed as described previously ([46]).

[2] = target: muscarinic receptor (total muscarinic-receptor subtypes); assay: [^3H]NMS saturation binding on membrane preparations of cortex and hippocampus; parameters: species or system mice; conditions: mean ± SD, five animals
From the text: We performed [^3H]NMS-binding studies on membrane preparations as described previously ([20]).

muscarinic receptor = assay: [^3H]NMS binding on intact primary neuronal cells; parameters: species or system mice; conditions: read-out: dissociation constant (Kd) of the radioligand
Protocol: Primary neuronal cells were seeded at a density of 5 × 10^4 cells/well onto a 96-well plate and maintained at 37 °C in a 5% CO2 humidified atmosphere. On the sixth day in vitro, cells were washed twice with binding buffer (110 mM NaCl, 5.4 mM KCl, 1.8 mM CaCl2, 1 mM MgSO4, 25 mM glucose, 20 mM 4-(2-hydroxyethyl)-1-piperazineethanesulfonic acid [HEPES], 58 mM sucrose). A range of [^3H]NMS concentrations (between 0 and 10 nM) were added to appropriate wells containing buffer or 10-µM atropine to determine total and nonspecific binding in 100 µL of final-volume binding buffer. Plates were incubated for 2 h at 37 °C and the reactions were terminated by removal of the binding mixture followed by 3 × 200 µL/well ice-cold NaCl 0.9% washes. We added 100 µL/well of Microscint-20, and the plates were sealed before overnight incubation at room temperature on a rapidly shaking platform. Bound ligand was determined using a Packard Topcount NXT (Perkin-Elmer Life Sciences).

Q: Which “effect on dimers of the D3 dopamine receptor” value (D3 dopamine receptor) does the source give for `O=C(CCCN1CCC2(CC1)C(=O)NCN2c1ccccc1)c1ccc(F)cc1` [spiperone] here?
A: The value was “destabilize dimers of the D3 dopamine receptor”.

Q: For `CC1(C)CN2C(CSC(=NC3CCCCC3)NC3CCCCC3)=CSC2=N1` [IT1t], which “effect on dimers of CXCR4” value (chemokine CXCR4) is on record?
A: The value was “disrupt dimers of the chemokine CXCR4”.

Q: For `Nc1ncnc2c1ncn2[C@@H]1O[C@H](COP(=O)(O)OP(=O)(O)OP(=O)(O)O)[C@@H](O)[C@H]1O` [adenosine triphosphate], which “elevation of intracellular [Ca^2+]” value ([1]; 10 μM ATP added after carbachol, cells from M1-KO mice) is on record?
A: Its value is “able to elicit rapid elevation of intracellular [Ca^2+]”.

Q: With `C=C1C(=O)N[C@@H](C)C(=O)N(C)[C@@H](C)C(=O)N[C@@H]([C@H](OC(=O)[C@@H](NC(=O)CC)[C@H](O)C(C)C)C(C)C)C(=O)N(C)[C@@H]([C@@H](C)OC)C(=O)O[C@H](C(C)C)[C@H](NC(C)=O)C(=O)O[C@H](Cc2ccccc2)C(=O)N1C` [FR900359] (Ac-[X1][dPhLac][NMeDha]A[NMeA][X1](Leu(3R-OH,Nα-propionyl))[NMeT](Me); ester 1-C) as the compound, how does the “effect on carbachol-induced elevation of [Ca^2+]” value ([1]; pretreatment with 1 µM FR900359 for 30 min, P < 0.001) read?
A: The value was “prevented”.

Q: With `C[N+]1(C)[C@@H]2CC(OC(=O)[C@H](CO)c3ccccc3)C[C@H]1[C@@H]1O[C@@H]12` (some centres unmarked) [[^3H]NMS, [^3H]N-methylscopolamine] as the compound, how does the Kd ([2]; cortex, M1-KO mice) read?
A: The Kd was […].

Q: And the Kd ([2]; cortex, M1-WT mice)?
A: The Kd was […].

Q: What about the Kd ([2]; cortex, homozygous M1-mEGFP mice) of the same compound?
A: Its Kd is […].

Q: What about the Kd ([2]; hippocampus, M1-KO mice) of the same compound?
A: Its Kd is […].

Q: What about the Kd ([2]; hippocampus, M1-WT mice) of the same compound?
A: Its Kd is […].

Q: What about the Kd ([2]; hippocampus, homozygous M1-mEGFP mice) of the same compound?
A: Its Kd is […].

Q: What about the Kd (muscarinic receptor; intact neuronal cultures from WT mice) of the same compound?
A: The Kd was […].

Q: For `O=C(CCCN1CCC(O)(c2ccc(Cl)cc2)CC1)c1ccc(F)cc1` [haloperidol], which “effect on dimers of the D3 dopamine receptor” value (D3 dopamine receptor) is on record?
A: Its value is “destabilize dimers of the D3 dopamine receptor”.

Q: With `C[N+](C)(C)CCOC(N)=O` [carbachol] as the compound, how does the “elevation of [Ca^2+]” value ([1]; cells from M1-KO mice) read?
A: Its value is “did not promote a large increase of [Ca^2+]”.

Q: And the “elevation of [Ca^2+]” value ([1]; neuronal cultures from WT and homozygous M1-mEGFP mice)?
A: The value was “promoted elevation of [Ca^2+]”.

Q: What about the “percentage of tested cells that responded to carbachol” value ([1]; neurons from M1-mEGFP mice, mean ± SD) of the same compound?
A: The value was 36.7% ± 4.0%.

Q: And the “percentage of tested cells that responded to carbachol” value ([1]; neurons from WT mice)?
A: Its value is 26.8% ± 3.4%.
